Assays:
AR(W741L) = target: T1, AR(W741L) (Homo sapiens, UniProt P10275, W742L); experiment: Mutant AR antagonistic activity test, W741L (reporter gene in HEK293 cells); format: cell-based; settings: for IC50: HEK293 cells, DHT 10 nM, 24 hours, read-out: W741L IC50(nM) 1st gen AR antagonist resistant mutation
T1 construct: expressed in transfected cells; host or cells: HEK293
T1 sequence (P10275 1-920 W742L): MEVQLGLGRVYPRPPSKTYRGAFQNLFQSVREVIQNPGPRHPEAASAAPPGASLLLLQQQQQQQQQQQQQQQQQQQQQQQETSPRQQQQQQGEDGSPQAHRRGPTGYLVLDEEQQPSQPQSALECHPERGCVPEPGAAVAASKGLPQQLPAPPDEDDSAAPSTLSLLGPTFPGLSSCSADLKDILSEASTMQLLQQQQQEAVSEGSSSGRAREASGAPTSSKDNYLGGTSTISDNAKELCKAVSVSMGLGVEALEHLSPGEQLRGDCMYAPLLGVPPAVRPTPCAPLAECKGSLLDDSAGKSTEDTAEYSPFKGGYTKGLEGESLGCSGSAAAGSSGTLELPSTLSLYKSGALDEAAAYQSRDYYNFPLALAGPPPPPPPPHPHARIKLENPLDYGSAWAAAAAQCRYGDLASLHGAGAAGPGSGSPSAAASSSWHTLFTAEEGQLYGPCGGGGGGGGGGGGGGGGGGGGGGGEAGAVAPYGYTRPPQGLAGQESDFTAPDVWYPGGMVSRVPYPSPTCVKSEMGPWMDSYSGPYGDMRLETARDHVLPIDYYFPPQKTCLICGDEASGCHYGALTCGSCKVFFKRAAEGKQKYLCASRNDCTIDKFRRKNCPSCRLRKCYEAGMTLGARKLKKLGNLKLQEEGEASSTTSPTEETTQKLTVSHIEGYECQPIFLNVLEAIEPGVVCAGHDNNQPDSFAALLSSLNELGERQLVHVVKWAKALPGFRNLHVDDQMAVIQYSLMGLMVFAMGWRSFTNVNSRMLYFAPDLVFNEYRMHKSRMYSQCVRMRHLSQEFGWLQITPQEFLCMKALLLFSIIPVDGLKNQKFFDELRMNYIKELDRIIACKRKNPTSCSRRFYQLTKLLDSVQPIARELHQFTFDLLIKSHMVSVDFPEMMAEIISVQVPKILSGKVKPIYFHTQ
Protocol: HEK293 cells were cultured in DMEM supplemented with 10% FBS and 1% GlutaMax at 37° C. with 5% CO2. The day before transfection, the medium was changed to DMEM containing 10% charcoal-stripped FBS and 1% GlutaMax. […] The cell suspension was diluted with cell seeding solution, and the transfection reagent was added to achieve 500,000 cells/mL. Subsequently, 90 μL of cell suspension was seeded into each well of the assay plate. The next day, compounds were prepared: starting from 8 mM, 3-fold serial dilutions were performed in DMSO for a total of 8 points, then 500 nL was transferred to the compound plate using Echo. The compounds were then diluted with 40 μL of medium to 10× final concentration, and 10 μL was transferred to the cell plate and incubated at 37° C. for 30 minutes. Subsequently, 10 nL of DHT at a final concentration of 10 nM was transferred to each well of the assay plate using TECAN. After 24 hours of incubation, 100 μL of Steady-Glo was added to the assay plate and read on an Envision reader. Data were determined and analyzed using GraphPad Prism.

LNCaP cells = experiment: In vitro LNCaP cell proliferation inhibition test (CellTiter-Glo); format: cell-based; settings: for Maximum Inhibition (%) / IC50: 6 days; for IC50: Homo sapiens, read-out: Anti-proliferative activity IC50; for Anti-proliferative activity, fold improvement compared to abiraterone: ratio to abiraterone IC50
Protocol: The cells were then digested with trypsin and counted using an automated cell counter to determine cell density. The cell suspension was diluted to the desired density in growth medium. Subsequently, 100 μL of the cell suspension was seeded into 96-well plates and incubated at 37° C. with 5% CO2 for 24 hours. 10 μL of drug solution (including 3-fold serial dilutions of compounds or DMSO) was added to each well, and the plates were incubated at 37° C. with 5% CO2 for 6 days. Prior to measurement, the assay plates were equilibrated to room temperature. 40 μL of CellTiter-Glo® reagent was added to each well. The plates were mixed on an orbital shaker for 2 minutes to induce cell lysis. After incubation at room temperature for 60 minutes to stabilize the luminescence signal, the plates were read on an Envision plate reader.

[1] = test system: androgen-dependent organs; experiment: Hershberger assay, in vivo anti-androgenic activity; set-up: species or system Sprague-Dawley rats; settings: castrated male rats, 0.4 mg/kg testosterone propionate, 20 mg/kg QD oral, 10 days
Protocol: The Hershberger assay was used to detect the in vivo anti-androgenic signal transduction activity of the compounds of the present invention. In this assay, compounds of the present invention (14, 33 and 37) were administered to prepubertal castrated male Sprague-Dawley rats in the presence of 0.4 mg/kg testosterone propionate (TP), and the weights of androgen-dependent organs were measured. Dosing continued for 10 days, and measurements were made 24 hours after the last dose. The degree of AR antagonism and subsequent organ growth inhibition was evaluated by comparison with castrated controls. The test compounds were orally administered at 20 mg/kg QD and the endpoint evaluation was performed by measuring the weight changes of 2 androgen-sensitive organs (ASO): seminal vesicles with coagulating glands (SVCG) and ventral prostate (VP). Enzalutamide (ENZ) was used as a positive control.

| SMILES | IC50 (AR(W741L)) [nM] | Maximum Inhibition (%) (LNCaP cells) | IC50 (LNCaP cells) [nM] | Anti-proliferative activity, fold improvement compared to abiraterone (LNCaP cells) [fold] | Growth of androgen-dependent organs (SVCG and VP weight) compared to the castration group [1] | In vivo anti-androgenic activity compared with enzalutamide [1] | Anti-tumor activity and efficacy compared to enzalutamide (LNCaP cells; in words) | W741L antagonistic activity, fold improvement compared to enzalutamide (AR(W741L); ratio to enzalutamide IC50) [fold] |
| --- | --- | --- | --- | --- | --- | --- | --- | --- |
| Cc1cn(C2=CCC3C4CC=C5C[C@@H](NC(=O)c6ccncc6)CC[C@]5(C)C4CC[C@]23C)cn1 (stereo partly drawn) [Compound 14, N-((3S,10R,13S)-10,13-dimethyl-17-(4-methyl-1H-imidazol-1-yl)-2,3,4,7,8,9,10,11,12,13,14,15-dodecahydro-1H-cyclopenta[a]phenanthren-3-yl)isonicotinamide] | 490 | 99.35 | 205 | 15.8 | significantly inhibited the growth of androgen-dependent organs | activity comparable to enzalutamide |  |  |
| Cc1cn(C2=CCC3C4CC=C5C[C@@H](NC(=O)c6ccc(F)cc6)CC[C@]5(C)C4CC[C@]23C)cn1 (stereo partly drawn) [Compound 33, N-((3S,10R,13S)-17-(4-methyl-1H-imidazol-1-yl)-10,13-dimethyl-2,3,4,7,8,9,10,11,12,13,14,15-dodecahydro-1H-cyclopenta[a]phenanthren-3-yl)-4-fluorobenzamide] | 371 | 102.9 | 478 |  | significantly inhibited the growth of androgen-dependent organs | activity comparable to enzalutamide | comparable anti-tumor activity but significantly superior anti-tumor efficacy compared to enzalutamide |  |
| Cc1cn(C2=CCC3C4CC=C5C[C@@H](NC(=O)c6ccc(S(C)(=O)=O)cc6)CC[C@]5(C)C4CC[C@]23C)cn1 (stereo partly drawn) [Compound 35, N-((3S,10R,13S)-17-(4-methyl-1H-imidazol-1-yl)-10,13-dimethyl-2,3,4,7,8,9,10,11,12,13,14,15-dodecahydro-1H-cyclopenta[a]phenanthren-3-yl)-4-(methylsulfonyl)benzamide] | 259 | 96.85 | 527 |  |  |  |  | 4.0 |
| Cc1cn(C2=CCC3C4CC=C5C[C@@H](NC(=O)c6ccc(F)cc6F)CC[C@]5(C)C4CC[C@]23C)cn1 (stereo partly drawn) [Compound 37, N-((3S,10R,13S)-17-(4-methyl-1H-imidazol-1-yl)-10,13-dimethyl-2,3,4,7,8,9,10,11,12,13,14,15-dodecahydro-1H-cyclopenta[a]phenanthren-3-yl)-2,4-difluorobenzamide] | 413 | 95.85 | 327 | 8.6 | significantly inhibited the growth of androgen-dependent organs | activity comparable to enzalutamide |  |  |
